US5846516A, “Perfluoroalkylated amphiphilic phosphorus compounds: preparation and biomedical applications” (Alliance Pharmaceutial Corp., priority 1992, dated 1998)
Read-outs that look alike come from different tables or passages of the source.

Legend:
[1] = Surface activity of aqueous solutions: surface (γs) and interfacial (γi) tensions; type: physicochemical; conditions: 20° C., ±0.3 mNm^-1
Text: The compounds described in this invention are very efficient surface agents, greatly lowering the surface (γs) and interfacial (γi) tensions between water and a fluorocarbon when added to water. […], γs goes from 73 (pure water) to 19.7-33.8 mNm^-1, and γi [water/perfluorodecalin (FDC) or perfluorooctyl bromide (PFOB) ] goes from 56 and 51 (in the absence of surfactant) to 5.1-8.9 mNm^-1 and 4.7-10.5 mNm^-1 respectively, as illustrated by the examples assembled in the table below. These compounds are also characterized by low values of critical micellar concentration: (CMC:from 1.10^-6 to 1.7.10^-3 M).
(§1) Surface Activity Data of Aqueous Solutions

[2] = Critical micellar concentration (CMC); type: physicochemical; conditions: aqueous solutions, 20° C.
Text: The compounds described in this invention are very efficient surface agents, greatly lowering the surface (γs) and interfacial (γi) tensions between water and a fluorocarbon when added to water. Thus at 1 g/L in water, γs goes from 73 (pure water) to 19.7-33.8 mNm^-1, and γi [water/perfluorodecalin (FDC) or perfluorooctyl bromide (PFOB) ] goes from 56 and 51 (in the absence of surfactant) to 5.1-8.9 mNm^-1 and 4.7-10.5 mNm^-1 respectively, as illustrated by the examples assembled in the table below. These compounds are also characterized by low values of critical micellar concentration: (CMC:from 1.10^-6 to 1.7.10^-3 M).
as §1

[3] = tested on: mice; assay: Toxicity in mice after intravenous injection (LD50, survival); type: in vivo; conditions: for Toxicity in mice, Survival: i.v.
Procedure: (§2) Compound 22 is non-hemolytic at a 50 g/L concentration, and its LD50 is higher than 2000 mg/kg in intravenous injection into mice. […] Furthermore, these derivatives show a higher i.v. tolerance than the single-chain compounds disclosed in WO 90/15807 C (25 ≤LD50 ≤125 mg/kg bw).

[4] = Ageing of sonicated perfluorodecalin (FDC 50% w/v) emulsions at 40° C., average particle size; type: physicochemical; conditions: FIG. 5; 50% w/v PFD sterilized emulsions, 3% surfactant
Procedure: (§3) The products described in this invention, used as surfactants or co-surfactants, allow the preparation and stabilization of fluorocarbon emulsions. The emulsions were prepared by sonification (BRANSON B30 sonicator) (for 50% w/v of fluorocarbon) or by high-pressure microfluidization ((MICROFLUIDICS M 110)) (for more concentrated fluorocarbon emulsions). The ageing of these emulsions at 40° C. (accelerated ageing conditions) was followed by measuring the average size of the particles by a photosedimentation method (HORIBA CAPA 500) and compared with reference emulsions prepared with natural egg-yolk lecithins or poloxamers, for example Pluronic F-68.
To prepare 12 mL of an emulsion of FDC (50% w/v) with 3% w/v of 7b, the surfactant (360 mg) was first sonicated in a rosette cell at 0° C., in 8.55 mL of water. Next, the FDC (6 g) was added and the whole is sonicated, until optimal average particle size and size distribution are obtained. The emulsion was then divided into aliquots, stocked under inert atmosphere, sterilized for 8 min at 121° C. in an autoclave, then stored at 40° C. and monitored over time.
The same process but with a mixture of surfactants composed of 120 mg of 7b and 240 mg of natural egg-yolk lecithins (EYP) gave FDC emulsion with the following average particle sizes: 0.15 μm on preparation, 0.21 μm after sterilization and 0.32 μm after 30 days at 40° C. […]

[5] = Dispersibility in water at 25° C.
[6] = Growth and viability of Namalva cell cultures; type: cell-based; conditions: human; for activity: namalva cells; for viability: Namalva cells
[7] = Hemolysis of red blood cells; type: cell-based, human; conditions: human, read-out: Hemolysis, % hem.
Procedure: as §2
(§4) *solution added to an equal volume of a suspension, at 1% concentration o
(§5) washed red blood cells in saline.

[8] = tested on: human red blood cells; assay: Hemolysis of red blood cells; type: cell-based
Procedure: as §2, §4, §5

[9] = type: physicochemical; conditions: 90% w/v PFOB
Procedure: as §3
To prepare 40 mL of a 90% w/v PFOB emulsion, surfactant 7b (400 mg) was first dispersed in 19.6 mL of a phosphate buffer with an Ultra Turrax. PFOB (36 g) was then added slowly and the whole was mixed for 10 min at 24000 revolutions/min. The resulting pre-emulsion was transferred into a microfluidizer and emulsified for 1 min at 800-1000 bar.
This emulsion was prepared as for example 28 with 200 mg of 7b and 1.4 g of EYP for 35 g of PFOB.

[10] = Toxicity in mice after intravenous injection (LD50, survival); type: in vivo; conditions: mouse, in vivo; intravenous injection into mice
Procedure: as §2

Molecule: [5-(F-octyl)pentyl] bis [polyethylene glycol methyl ether] phosphate triester 21, n=7 [Compound 21]
- γi /FDC (interfacial tension water/perfluorodecalin) ([1]; 0.01 g/L (0.008 mM) in water): 9.6 mNm^-1
- γi /PFOB (interfacial tension water/perfluorooctyl bromide) ([1]; 0.01 g/L (0.008 mM) in water): 7.5 mNm^-1
- γs (surface tension) ([1]; 0.01 g/L (0.008 mM) in water): 29.6 mNm^-1
- CMC [2]: 0.001 mM
- Toxicity in mice, Survival ([3]; dose 500 (mg/kg)): 10/10
- Toxicity in mice, Survival ([3]; dose 1000 (mg/kg)): 3/10
- Dispersibility at 25° C., g/L in water: > 100 g/L

Molecule: O=P(O)(OCCC(F)(F)C(F)(F)C(F)(F)C(F)(F)C(F)(F)C(F)(F)C(F)(F)C(F)(F)F)O[C@H]1[C@H](O)[C@@H](CO)OC(O)[C@@H]1O (stereo partly drawn) [Compound 8b, [2-(F-octyl)ethyl] (3-D-glucosyl)(sodium) phosphate]
- γi /FDC (interfacial tension water/perfluorodecalin) ([1]; 1 g/L in water): 5.6 mNm^-1
- γi /PFOB (interfacial tension water/perfluorooctyl bromide) ([1]; 1 g/L in water): 8.3 mNm^-1
- γs (surface tension) ([1]; 1 g/L in water): 27.5 mNm^-1
- CMC [2]: 1.68 mM
- ageing at 40° C. of perfluorodecalin emulsions (in words) [4]: superimposable
- solubility [5]: 250 mg/mL

Molecule: O=P(O)(OCCC(F)(F)C(F)(F)C(F)(F)C(F)(F)C(F)(F)C(F)(F)C(F)(F)C(F)(F)F)OC[C@H]1OC(O)[C@H](O)[C@@H](O)[C@@H]1O (stereo partly drawn) [Compound 7b, [2-(F-octyl)ethyl](6-D-glucosyl)(sodium)phosphate]
- activity ([6]; 1 g/L): 76%
- viability ([6]; 1 g/L): 104%
- hemolysis ([7]; 30 g/L, dispersed in a 20 g/L Pluronic F68 solution, added to an equal volume of 1% washed red blood cells in saline): 0%
- hemolytic effect (in words) ([8]; dispersion at 30 g/L in 20 g/L Pluronic F-68): no hemolytic effect
- Toxicity in mice, Survival ([3]; dose 125 (mg/kg)): 10/10
- ageing at 40° C. of perfluorodecalin emulsions (in words) [4]: superimposable
- stability of PFOB emulsion vs. EYP emulsion (in words) ([9]; FIG. 6, 1% w/v 7b vs 4% EYP, 40° C.): more stable than an emulsion containing 4% of EYP
- co-surfactant effect with EYP on particle size and stabilization (in words) ([9]; FIG. 7, 1/8th of 4% EYP replaced by 7b): significantly reduces the average particle size and causes strong stabilization

Molecule: [2-(F-octyl)ethyl] bis [polyethylene glycol methyl ether] phosphate triester 20, n=7 [Compound 20]
- γi /FDC (interfacial tension water/perfluorodecalin) ([1]; 0.1 g/L (0.083 mM) in water): 13.1 mNm^-1
- γi /PFOB (interfacial tension water/perfluorooctyl bromide) ([1]; 0.1 g/L (0.083 mM) in water): 9.2 mNm^-1
- γs (surface tension) ([1]; 0.1 g/L (0.083 mM) in water): 33.8 mNm^-1
- CMC [2]: 0.025 mM
- Dispersibility at 25° C., g/L in water: > 100 g/L

Molecule: O=P(O)(OCCC(F)(F)C(F)(F)C(F)(F)C(F)(F)C(F)(F)C(F)(F)F)OC[C@H]1OC(O)[C@H](O)[C@@H](O)[C@@H]1O (stereo partly drawn) [Compound 7a, [2-(F-hexyl)ethyl](6-D-glucosyl)(sodium)phosphate]
- γi /FDC (interfacial tension water/perfluorodecalin) ([1]; 1 g/L in water): 5.6 mNm^-1
- γi /PFOB (interfacial tension water/perfluorooctyl bromide) ([1]; 1 g/L in water): 4.7 mNm^-1
- γs (surface tension) ([1]; 1 g/L in water): 19.7 mNm^-1
- CMC [2]: 1.55 mM
- activity ([6]; 0.1 g/L): 82%
- activity ([6]; 1 g/L): 51%
- viability ([6]; 1 g/L): 97%
- hemolysis ([7]; 100 g/L, solution added to an equal volume of 1% washed red blood cells in saline): 0%
- hemolytic activity (in words) ([8]; even at 100 g/L): no hemolytic activity
- LD50 [10]: ~750 mg/kg
- Toxicity in mice, Survival ([3]; dose 750 (mg/kg)): 4/10
- solubility [5]: 350 mg/mL

Molecule: [5-(F-octyl)pentyl] bis [polyethylene glycol methyl ether] phosphate triester 22, n=16 [Compound 22]
- hemolytic activity (in words) ([8]; 50 g/L): non-hemolytic
- Toxicity in mice, Survival ([3]; dose 2000 (mg/kg)): 10/10
- LD50 ([3]; intravenous injection into mice): higher than 2000 mg/kg
- in vivo (i.v.) tolerance (in words) ([3]; intravenous, mice): in vivo tolerance increases from 21 to 22
